What follows are molecules tested on primary rat hepatocytes (assay: Inhibition of lipid synthesis ([1-14C]-acetate incorporation) in primary cultures of rat hepatocytes). Settings: Hepatocyte, 4 h incubation with [1-14C]-acetate, Table 7, ranges: confidence of estimate insufficient to assign a value.
Format: cell-based
Procedure, shortened: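 Monolayer primary hepatocytes from male Sprague-Dawley rats, serum-free overnight, were incubated 4 h with 0, 1, 3, 10, 30, 100 or 300 μM compound and 0.25 μCi [1-14C]-acetate per well. Total lipid synthesis was read as radioactivity in the lipid phase extracted into scintillant.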

| Compound | IC50 [nM] |
| --- | --- |
| CC(C)(CCCCC(=O)CCCCC(C)(C)C(=O)O)C(=O)O [Compound 210c, 7-Oxo-2,2,12,12-tetramethyltridecanedioic acid] | 3000 |
| CC(C)(CCCCCC(=O)CCCCCC(C)(C)C(=O)O)C(=O)O [Compound 210g, 2,2,14,14-Tetramethyl-8-oxopentadecanedioic acid] | 3000 |
| CC(C)(CO)CCCCC(=O)CCCCC(C)(C)CO [Compound 214c, 1,13-Dihydroxy-2,2,12,12-tetramethyltridecan-7-one] | 4000 |
